# Measurements published in publication PMC12716163 (Nanoscale, 2024).
# What was measured:
# c-Met = c-Met (Homo sapiens, UniProt P08581); assay: c-Met inhibition IC50; type: biochemical; settings: read-out: c-Met inhibitory activity IC50
# PC3-PIP PSMA (+) cells = assay: CellTiter-Glo cell viability; type: cell-based, human; settings: 72 H, equivalent drug bases
# Aqueous solubility = type: physicochemical
# PSMA = PSMA (Homo sapiens, UniProt Q04609); settings: irreversible inhibitor; cited from earlier work
# Sequence of PSMA (Q04609 whole entry): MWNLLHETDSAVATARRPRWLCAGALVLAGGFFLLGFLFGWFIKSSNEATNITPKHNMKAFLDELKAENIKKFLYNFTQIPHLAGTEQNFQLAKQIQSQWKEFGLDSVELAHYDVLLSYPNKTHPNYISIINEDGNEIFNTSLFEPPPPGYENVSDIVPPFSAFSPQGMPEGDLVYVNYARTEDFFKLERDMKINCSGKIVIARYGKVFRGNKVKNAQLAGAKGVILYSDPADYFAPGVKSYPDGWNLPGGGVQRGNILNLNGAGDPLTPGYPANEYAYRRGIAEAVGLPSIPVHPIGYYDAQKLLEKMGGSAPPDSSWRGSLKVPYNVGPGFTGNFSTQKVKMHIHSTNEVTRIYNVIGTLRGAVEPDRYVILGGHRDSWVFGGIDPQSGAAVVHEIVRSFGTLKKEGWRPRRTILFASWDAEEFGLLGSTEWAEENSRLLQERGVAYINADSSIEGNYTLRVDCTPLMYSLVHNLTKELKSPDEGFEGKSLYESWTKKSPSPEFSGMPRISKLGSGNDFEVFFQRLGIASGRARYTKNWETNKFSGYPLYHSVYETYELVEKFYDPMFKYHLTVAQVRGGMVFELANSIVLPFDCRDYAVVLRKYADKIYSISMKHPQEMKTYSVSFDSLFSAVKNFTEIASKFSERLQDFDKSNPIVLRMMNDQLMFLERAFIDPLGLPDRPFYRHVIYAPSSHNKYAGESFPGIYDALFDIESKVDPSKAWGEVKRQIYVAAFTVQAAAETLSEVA
# Sequence of c-Met (P08581 25-1390): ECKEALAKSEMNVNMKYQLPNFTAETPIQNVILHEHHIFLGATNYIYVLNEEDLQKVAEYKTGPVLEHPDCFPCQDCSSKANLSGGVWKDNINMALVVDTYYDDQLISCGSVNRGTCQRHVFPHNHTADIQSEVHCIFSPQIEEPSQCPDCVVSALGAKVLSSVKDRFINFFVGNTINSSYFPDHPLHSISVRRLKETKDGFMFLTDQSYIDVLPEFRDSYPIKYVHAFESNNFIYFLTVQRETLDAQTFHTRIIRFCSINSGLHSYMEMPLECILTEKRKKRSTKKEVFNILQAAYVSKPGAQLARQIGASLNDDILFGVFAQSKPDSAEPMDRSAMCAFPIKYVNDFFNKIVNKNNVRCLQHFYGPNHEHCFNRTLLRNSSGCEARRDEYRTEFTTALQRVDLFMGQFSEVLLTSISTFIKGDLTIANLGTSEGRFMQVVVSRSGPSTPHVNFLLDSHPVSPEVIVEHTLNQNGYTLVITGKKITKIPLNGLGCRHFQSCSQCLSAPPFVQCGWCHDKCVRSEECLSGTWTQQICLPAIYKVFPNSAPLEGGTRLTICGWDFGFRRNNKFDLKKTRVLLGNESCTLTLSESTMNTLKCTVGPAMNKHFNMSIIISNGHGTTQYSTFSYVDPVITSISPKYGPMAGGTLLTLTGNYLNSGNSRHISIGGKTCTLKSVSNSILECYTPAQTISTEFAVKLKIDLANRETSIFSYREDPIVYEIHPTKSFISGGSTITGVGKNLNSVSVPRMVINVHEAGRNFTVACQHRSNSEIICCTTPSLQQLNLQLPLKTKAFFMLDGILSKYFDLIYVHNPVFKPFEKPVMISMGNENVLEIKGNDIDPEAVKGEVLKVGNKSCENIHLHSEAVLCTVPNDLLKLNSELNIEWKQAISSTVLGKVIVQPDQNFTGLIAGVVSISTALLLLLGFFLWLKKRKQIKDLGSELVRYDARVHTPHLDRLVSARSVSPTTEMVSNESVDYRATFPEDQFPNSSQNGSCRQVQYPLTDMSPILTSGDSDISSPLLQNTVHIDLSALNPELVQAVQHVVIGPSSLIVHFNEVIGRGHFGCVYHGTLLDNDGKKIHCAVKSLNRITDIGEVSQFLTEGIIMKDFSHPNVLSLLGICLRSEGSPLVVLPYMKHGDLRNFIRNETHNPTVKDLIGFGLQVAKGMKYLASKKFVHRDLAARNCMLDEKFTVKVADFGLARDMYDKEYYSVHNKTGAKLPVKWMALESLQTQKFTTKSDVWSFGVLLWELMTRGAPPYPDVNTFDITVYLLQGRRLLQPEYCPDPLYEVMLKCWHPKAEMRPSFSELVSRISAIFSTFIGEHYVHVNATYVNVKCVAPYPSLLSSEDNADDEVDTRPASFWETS
SMILES,IC50 (c-Met) [nM],anti-proliferative IC50 (PC3-PIP PSMA (+) cells) [µg/mL],aqueous solubility (Aqueous solubility),PSMA affinity (PSMA)
COc1cc2c(Oc3ccc(NC(=O)C4(C(=O)Nc5ccc(F)cc5)CC4)cc3)ccnc2cc1O [Cabo-OH],26.3,77.30 ± 4.35,poor aqueous solubility,–
O=C(O)CC[C@H](NP(=O)(O)OCCC[C@H](NC(=O)CC[C@H](NC(=O)CCCCCNC(=O)c1ccc(F)cc1)C(=O)O)C(=O)O)C(=O)O [CTT 1057],–,–,–,nanomolar affinity
"COc1cc2nccc(Oc3ccc(NC(=O)C4(C(=O)Nc5ccc(F)cc5)CC4)cc3)c2cc1OC [Cabo, cabozantinib, reference compound]",–,–,poor aqueous solubility,–
